Assay [1] concerns ventral prostate and seminal vesicle of immature castrated male Sprague Dawley rats. Kind of assay: Ventral Prostate and Seminal Vesicle Weight in vivo Assay (antagonist activity, with testosterone propionate). Set-up: key to Inhibition of prostate (non-weight prostate weight, mg) / Inhibition of seminal vesicle (non-weight seminal vesicle weight, mg): level 1 agonist active if it produced greater than or equal to 30% stimulation of levator ani or ventral prostate at 30 mg/kg; level 2 agonist active if it produced greater than or equal to 5% but less than 30% stimulation of levator ani or ventral prostate at 30 mg/kg; listed herein as “inactive” as they did not meet the specified criteria defined above. The conditions noted are these: test compound oral plus testosterone propionate 2 mg/kg s.c., five days, criteria at 30 mg/kg; for inhibition in vivo at 30 mg/kg: Rattus norvegicus, 120 h. Here is the method: Immature (approximately 50 g) castrated male Sprague Dawley rats (Charles River) were treated once daily for five days with test compound ([…], in 30% cyclodextrin or 0.5% methylcellulose vehicle) and with testosterone propionate (given subcutaneously by injection at the nape of the neck at 2 mg/kg, in a volume of 0.1 mL in sesame oil). On the sixth day, the rats were euthanized by asphyxiation in carbon dioxide. Ventral prosatates and seminal vesicles were removed and their wet weights determined. Test compound activity was determined as the percent inhibition of testosterone-enhanced tissue weights, with a vehicle-treated control group set to zero percent and a testosterone alone-treated control group set to 100%.

The subject of assay [2] is ventral prostate and levator ani of immature castrated male Sprague Dawley rats. Briefly: Ventral Prostate and Levator ani Weight in vivo Assay (agonist activity). The conditions noted are these: once daily for five days, oral, vehicle = 0%, testosterone propionate = 100%, criteria at 30 mg/kg; for change in vivo at 30 mg/kg: Rattus norvegicus, 120 h. Set-up: key to % Prostate Stimulation / % levator ani Stimulation: level 1 agonist active if it produced greater than or equal to 30% stimulation of levator ani or ventral prostate at 30 mg/kg; level 2 agonist active if it produced greater than or equal to 5% but less than 30% stimulation of levator ani or ventral prostate at 30 mg/kg; listed herein as “inactive” as they did not meet the specified criteria defined above. As for the experimental part: Immature (approximately 50 g) castrated male Sprague Dawley rats (Charles River) were treated once daily for five days with test compound ([…], in 30% cyclodextrin or 0.5% methylcellulose vehicle), or with testosterone propionate (administered subcutaneously by injection at the nape of the neck at 5 mg/kg, in a volume of 0.1 mL in sesame oil), or with vehicle (1 mL of 30% cyclodextrin or 0.5% methylcellulose, given orally). On the sixth day, the rats were euthanized by asphyxiation in carbon dioxide. Ventral prostates and levator ani. muscle were removed and their wet weights determined.
Test compound activity was determined as the percent stimulation of tissue weight, with the vehicle-treated control group set to zero percent and the testosterone alone-treated control group set to 100%.

Where [3] appears, read: levator ani wet weight, 30 mg/kg.
The mark [4] stands for this setting: ventral prostate wet weight, 30 mg/kg.
The mark [5] stands for this setting: seminal vesicle wet weight, read-out: Inhibition of seminal vesicle (non-weight seminal vesicle weight, mg).
Setting [6] is: ventral prostate wet weight, read-out: Inhibition of prostate (non-weight prostate weight, mg).
Setting [7] is: levator ani wet weight, read-out: % levator ani Stimulation.
Setting [8] is: ventral prostate wet weight, read-out: % Prostate Stimulation.

Read-outs that look alike come from different tables or passages of the source. Some results are limits rather than exact numbers.

`C[C@@]12CC(C(F)(F)F)=NN1C(N)=NC2=Nc1ccc(C#N)c(C(F)(F)F)c1.O` [Compound 21, 4-(6-Amino-3aS-methyl-2-trifluoromethyl-3,3a-dihydro-imidazo[1,5-b]pyrazol-4-ylideneamino)-2-trifluoromethyl-benzonitrile-Hydrates]: in assay [1] (seminal vesicle wet weight), the “Inhibition of seminal vesicle (non-weight seminal vesicle weight, mg)” value was “level 1 (level 1 antagonist active if it produced greater than or equal to 30% inhibition of ventral prostate or seminal vesicle at 30 mg/kg)”. Also, the “Inhibition of prostate (non-weight prostate weight, mg)” value in assay [1] (ventral prostate wet weight) is “level 1 (level 1 antagonist active if it produced greater than or equal to 30% inhibition of ventral prostate or seminal vesicle at 30 mg/kg)”. Besides, in assay [2] (setting [3]), the “% levator ani Stimulation” value is listed as “level 1 (level 1 agonist active if it produced greater than or equal to 30% stimulation of levator ani or ventral prostate at 30 mg/kg)”. Moreover, the “% Prostate Stimulation” value in assay [2] (setting [4]) is “level 1 (level 1 agonist active if it produced greater than or equal to 30% stimulation of levator ani or ventral prostate at 30 mg/kg)”.
As to `CC12CC(C(F)(F)F)=NN1C(=N)O/C2=N\c1ccc(C#N)c(C(F)(F)F)c1` (centres unmarked) [Compound 15, 4-(6-Imino-3a-methyl-2-trifluoromethyl-3,3a-dihydro-pyrazolo[1,5-c]oxazol-4-ylideneamino)-2-trifluoromethyl-benzonitrile], the inhibition in vivo at 30 mg/kg in assay [1] (setting [5]) and in assay [1] (setting [6]) was 5 to 30% each time. The change in vivo at 30 mg/kg is ≥ 30% in assay [2] (setting [7]) and 5 to 30% in assay [2] (setting [8]).
As to `C[C@@]12CC(C(F)(F)F)=NN1C(N)=N/C2=N\c1ccc(C#N)c(C(F)(F)F)c1` [Compound 3, 4-(6-Amino-3aS-methyl-2-trifluoromethyl-3,3a-dihydro-imidazo[1,5-b]pyrazol-4-ylideneamino)-2-trifluoromethyl-benzonitrile], the inhibition in vivo at 30 mg/kg in assay [1] (setting [5]) was 5 to 30%; in assay [1] (setting [6]), ≥ 30%. The results for the change in vivo at 30 mg/kg in assay [2] (setting [7]) and in assay [2] (setting [8]) were ≥ 30% and 5 to 30%, respectively.
Turning to `CC12CC(C(F)(F)F)=NN1C(N)=N/C2=N\c1ccc(Br)c(C(F)(F)F)c1` (centres unmarked) [Compound 10, 4-(4-Bromo-3-trifluoromethyl-phenylimino)-3a-methyl-2-trifluoromethyl-3a,4-dihydro-3H-imidazo[1,5-b]pyrazol-6-ylamine], the inhibition in vivo at 30 mg/kg in assay [1] (setting [5]) and in assay [1] (setting [6]) was 5 to 30% throughout. In addition, in assay [2] (levator ani wet weight), the “% levator ani Stimulation” value was “inactive”. Also, the “% Prostate Stimulation” value in assay [2] (ventral prostate wet weight) was “inactive”.
With `CCC12CC(C(F)(F)F)=NN1C(N)=N/C2=N\c1ccc(C#N)c(C(F)(F)F)c1` (centres unmarked) [Compound 8, 4-(6-Amino-3a-ethyl-2-trifluoromethyl-3,3a-dihydro-imidazo[1,5-b]pyrazol-4-ylideneamino)-2-trifluoromethyl-benzonitrile], in assay [1] (setting [5]), the inhibition in vivo at 30 mg/kg was in the range of 5 to 30%. Further, the “Inhibition of prostate (non-weight prostate weight, mg)” value in assay [1] (ventral prostate wet weight) is “inactive”. In addition, the change in vivo at 30 mg/kg in assay [2] (setting [7]) and in assay [2] (setting [8]) was 5 to 30% each time.
Take `CC12CC(C(F)(F)F)=NN1C(N)=N/C2=N\c1ccc(C#N)c(C(F)(F)F)c1` (centres unmarked) [Compound 1, 4-(6-Amino-3a-methyl-2-trifluoromethyl-3,3a-dihydro-imidazo[1,5-b]pyrazol-4-ylideneamino)-2-trifluoromethyl-benzonitrile]: the inhibition in vivo at 30 mg/kg in assay [1] (setting [5]) was ≥ 30%; in assay [1] (setting [6]) it was 5 to 30%. For the same molecule, the change in vivo at 30 mg/kg in assay [2] (setting [7]) and in assay [2] (setting [8]) was ≥ 30% in each case.
Turning to `C[C@@]12CC(C(F)(F)F)=NN1C(N)=NC2=Nc1ccc(C#N)c(C(F)(F)F)c1.O` [Compound 18, 4-(6-Amino-3aS-methyl-2-trifluoromethyl-3,3a-dihydro-imidazo[1,5-b]pyrazol-4-ylideneamino)-2-trifluoromethyl-benzonitrile-Hydrates], the “Inhibition of seminal vesicle (non-weight seminal vesicle weight, mg)” value in assay [1] (seminal vesicle wet weight) was “inactive”. In assay [1] (ventral prostate wet weight), the “Inhibition of prostate (non-weight prostate weight, mg)” value was “inactive”. In addition, in assay [2] (setting [3]), the “% levator ani Stimulation” value is given as “level 2 (level 2 agonist active if it produced greater than or equal to 5% but less than 30% stimulation of levator ani or ventral prostate at 30 mg/kg)”. In addition, the “% Prostate Stimulation” value in assay [2] (setting [4]) is “inactive”.
As for `C[C@@]12CC(C(F)(F)F)=NN1C(N)=NC2=Nc1ccc(C#N)c(C(F)(F)F)c1.O` [Compound 19, 4-(6-Amino-3aS-methyl-2-trifluoromethyl-3,3a-dihydro-imidazo[1,5-b]pyrazol-4-ylideneamino)-2-trifluoromethyl-benzonitrile-Hydrates], in assay [1] (seminal vesicle wet weight), the “Inhibition of seminal vesicle (non-weight seminal vesicle weight, mg)” value is on record as “level 1 (level 1 antagonist active if it produced greater than or equal to 30% inhibition of ventral prostate or seminal vesicle at 30 mg/kg)”. The “Inhibition of prostate (non-weight prostate weight, mg)” value in assay [1] (ventral prostate wet weight) is recorded as “level 1 (level 1 antagonist active if it produced greater than or equal to 30% inhibition of ventral prostate or seminal vesicle at 30 mg/kg)”. Also, the “% levator ani Stimulation” value in assay [2] (setting [3]) is on record as “level 1 (level 1 agonist active if it produced greater than or equal to 30% stimulation of levator ani or ventral prostate at 30 mg/kg)”. The “% Prostate Stimulation” value in assay [2] (setting [4]) is “level 1 (level 1 agonist active if it produced greater than or equal to 30% stimulation of levator ani or ventral prostate at 30 mg/kg)”.

The record behind these values is patent US7655683B2, “Imidazolopyrazole derivatives useful as selective androgen receptor modulators” (Janssen Pharmaceutica NV, priority 2006, dated 2010).
